Entries after “also recorded” stand apart in the source; their conditions may differ.
System: emerging SPEM cells at the bases of fundic glands
Assay: Gene microarray analysis of laser-capture microdissected chief cells and emerging SPEM cells (Affymetrix Mouse 430 2.0)
Type: in vivo, gastrin-deficient mice
Description: See Nomura, S., Yamaguchi, H., Wang, T. C., Lee, J. R., and Goldenring, J. R. 2004. Alterations in gastric mucosal lineages induced by acute oxyntic atrophy in wild type and gastrin deficient mice. Amer. J. Physiol. 288:G362-G375. […] To examine this hypothesis more directly, chief cells were microdissected from the very bases of untreated gastrin knockout mice as well as SPEM cells at the base of fundic glands after 1 and 3 days of treatment with DMP-777. Total RNA was prepared from 10,000 cells isolated from 4 different mice in each group. For each of the 12 samples, linear amplification was performed and Affymetrix Mouse 2.0 gene microarrays were probed. […] Second, 30 genes were identified as being involved in G1-S interface transition, including 5 MCM proteins, BRCA1, RIS2, RAD51, TACC3 and ligase1. Immunocytochemistry was used to confirm the upregulation of MCM3 as well as TACC3 in SPEM cells located at the base of fundic glands in mice treated for 1 or 3 days with DMP-777. All of these changes are consistent with alterations moving towards a proliferative phenotype. […] See Nomura, S., Yamaguchi, H., Wang, T. C., Lee, J. R., and Goldenring, J. R. 2004. Alterations in gastric mucosal lineages induced by acute oxyntic atrophy in wild type and gastrin deficient mice. Amer. J. Physiol. 288:G362-G375. Thus the up-regulation of proteins involved in the G1/S interface is also consistent with transdifferentiation of chief cells into SPEM, since such changes would require a global transcriptome, alterations that would require unwinding of DNA and changes in gene activation including alteration in DNA methylation.
Gastrin-deficient mice were constructed by targeted disruption of the gastrin gene and were maintained on a C57BL/6 background (Nomura S, Yamaguchi H, Wang T C, Lee J R, Goldenring J R. Alterations in gastric mucosal lineages induced by acute oxyntic atrophy in wild type and gastrin deficient mice. Amer.J.Physiol. 2004; In Press). Mice were treated for 1 or 3 days with oral gavage administration of DMP-777 (a gift of DuPont Pharmaceuticals), formulated in 0.5% methylcellulose (administered orally as a gavage once daily at 350 mg/kg/day). Untreated mice were utilized as controls. Mice were sacrificed and their stomachs were excised and opened along the greater curvature and processed for frozen sections for laser capture microdissection. From the untreated Gastrin-deficient mice, chief cells were microdissected from the bases of gastric glands. The emerging SPEM cells were microdissected from the bases of fundic glands of DMP-777-treated Gastrin-deficient mice after 1 or 3 days of oral drug administration. Cell collections (10,000 cells) and extractions of total RNA were performed as previously described (Nomura S, Baxter S, Yamaguchi T, Leys C, Vartapetian A B, Fox J G, Lee J R, Wang T C, Goldenring J R. Relationship of spasmolytic polypeptide expressing metaplasia (SPEM) to pre-neoplasia in H. felis-infected mice. Gastroenterology 2004; 127:582-594).
Total RNA from microdissected cells were reverse transcribed and amplified through two rounds of linear amplification using a Nugen Ovation kit to amplify and label 10-20 ng of RNA. The resulting single-strand cDNA product was purified by binding to and elution from a Qiagen QIAQUICK® column. The cDNA product was then quantitated and 2.2 μg of the fragmented, labeled product was hybridized to Affymetrix Mouse 430 2.0 microarrays overnight, with staining and scanning performed the next day. Gene expression was analyzed among microdissected cells from 4 untreated gastrin-deficient mice 4 mice treated with DMP-777 for one day and 4 mice treated with DMP-777 for three days. The raw gene expression data (.cel files) were converted to expression values using the Affy function in R (see the Bioconductor website). […]

[1] = DMP-777-treated gastrin-deficient mice, microarray
[2] = gastrin knockout mice, 1 day of DMP-777, SPEM cells vs untreated chief cells, fold increases indicated as the exponential of 2
[3] = gastrin knockout mice, 3 days of DMP-777, SPEM cells vs untreated chief cells, fold increases indicated as the exponential of 2
[4] = gastrin-deficient mice, 350 mg/kg/day oral, 1 day, microdissected SPEM cells vs untreated chief cells
[5] = gastrin-deficient mice, 350 mg/kg/day oral, 1 day, microdissected SPEM cells vs untreated chief cells, first line for this gene
[6] = gastrin-deficient mice, 350 mg/kg/day oral, 1 day, microdissected SPEM cells vs untreated chief cells, second line for this gene
[7] = gastrin-deficient mice, 350 mg/kg/day oral, 3 days, microdissected SPEM cells vs untreated chief cells
[8] = gastrin-deficient mice, 350 mg/kg/day oral, 3 days, microdissected SPEM cells vs untreated chief cells, first line for this gene
[9] = gastrin-deficient mice, 350 mg/kg/day oral, 3 days, microdissected SPEM cells vs untreated chief cells, second line for this gene

CCC[C@@H](NC(=O)N1C(=O)C(CC)(CC)[C@@H]1Oc1ccc(C(=O)N2CCN(C)CC2)cc1)c1ccc2c(c1)OCO2 [DMP-777]
pro-apoptotic genes in the cohort of up-regulated gene transcripts (1 and 3 days of DMP-777-treatment): there were not any pro-apoptotic genes detected; also recorded: No pro-apoptotic genes were detected
number of up-regulated genes involved in G1-S interface transition (DMP-777 1 and 3 days, at least 2 fold change): 30
number of the top 50 probes for up-regulated transcripts that detect regulators of the G1/S transition [1]: 34
transcripts for lipase, a chief cell product [1]: significant decrease
BRRN1, Day 1 Fold increase, Relative to Control [2]: 2.2 Fold
CRIP1, Day 1 Fold increase, Relative to Control [2]: 3.2 Fold
EREG, Day 1 Fold increase, Relative to Control [2]: 1.8 Fold
EXOSC8, Day 1 Fold increase, Relative to Control [2]: 2.6 Fold
EXPI, Day 1 Fold increase, Relative to Control [2]: 2.4 Fold
FIGNL1, Day 1 Fold increase, Relative to Control [2]: 3.3 Fold
IL1RN, Day 1 Fold increase, Relative to Control [2]: 4.7 Fold
LGALS3, Day 1 Fold increase, Relative to Control [2]: 5.5 Fold
NELF, Day 1 Fold increase, Relative to Control [2]: 2.1 Fold
S100A4, Day 1 Fold increase, Relative to Control [2]: 2.8 Fold
TMEM40, Day 1 Fold increase, Relative to Control [2]: 1.4 Fold
TMEM109, Day 1 Fold increase, Relative to Control [2]: 2.5 Fold
TR1P13, Day 1 Fold increase, Relative to Control [2]: 3.5 Fold
BRRN1, Day 3 Fold Increase, Relative to Control [3]: 3.1 Fold
CRIP1, Day 3 Fold Increase, Relative to Control [3]: 5.4 Fold
EREG, Day 3 Fold Increase, Relative to Control [3]: 4.8 Fold
EXOSC8, Day 3 Fold Increase, Relative to Control [3]: 2.8 Fold
EXPI, Day 3 Fold Increase, Relative to Control [3]: 8.4 Fold
FIGNL1, Day 3 Fold Increase, Relative to Control [3]: 2.7 Fold
IL1RN, Day 3 Fold Increase, Relative to Control [3]: 4.2 Fold
LGALS3, Day 3 Fold Increase, Relative to Control [3]: 7.3 Fold
NELF, Day 3 Fold Increase, Relative to Control [3]: 3.7 Fold
S100A4, Day 3 Fold Increase, Relative to Control [3]: 2.5 Fold
TMEM40, Day 3 Fold Increase, Relative to Control [3]: 6.9 Fold
TMEM109, Day 3 Fold Increase, Relative to Control [3]: 3.6 Fold
TR1P13, Day 3 Fold Increase, Relative to Control [3]: 3.0 Fold
5ssca1 transcript, 1 DAY DMP-777 vs CONTROL [4]: 8.9
Atf3 transcript, 1 DAY DMP-777 vs CONTROL [4]: 311.4
Cdc2a transcript, 1 DAY DMP-777 vs CONTROL [4]: 11.7
Cdca1 transcript, 1 DAY DMP-777 vs CONTROL [4]: 9.2
Cdca5 transcript, 1 DAY DMP-777 vs CONTROL [4]: 17.3
CdcaS transcript, 1 DAY DMP-777 vs CONTROL [4]: 7.3
Cenph transcript, 1 DAY DMP-777 vs CONTROL [4]: 25.7
Clspn transcript, 1 DAY DMP-777 vs CONTROL [4]: 9.5
Crip1 transcript, 1 DAY DMP-777 vs CONTROL [4]: 9.5
Dcc1 transcript, 1 DAY DMP-777 vs CONTROL [4]: 8.8
Ereg transcript, 1 DAY DMP-777 vs CONTROL [4]: 3.6
ExoscB transcript, 1 DAY DMP-777 vs CONTROL [4]: 6.2
Fignl1 transcript, 1 DAY DMP-777 vs CONTROL [4]: 10.2
Gadd45b transcript, 1 DAY DMP-777 vs CONTROL [4]: 8.6
Il1m transcript, 1 DAY DMP-777 vs CONTROL [4]: 25.4
Lgals3 transcript, 1 DAY DMP-777 vs CONTROL [4]: 46.8
Lig1 transcript, 1 DAY DMP-777 vs CONTROL [4]: 9.3
Mcm6 transcript, 1 DAY DMP-777 vs CONTROL [4]: 25.1
Ncapg transcript, 1 DAY DMP-777 vs CONTROL [4]: 7.5
Pole transcript, 1 DAY DMP-777 vs CONTROL [4]: 7.5
Rad51 transcript, 1 DAY DMP-777 vs CONTROL [4]: 13.5
Rad54b transcript, 1 DAY DMP-777 vs CONTROL [4]: 6.7
Rfc3 transcript, 1 DAY DMP-777 vs CONTROL [4]: 8.1
Rfc4 transcript, 1 DAY DMP-777 vs CONTROL [4]: 8.5
Rrm1 transcript, 1 DAY DMP-777 vs CONTROL [4]: 8.4
Tk1 transcript, 1 DAY DMP-777 vs CONTROL [4]: 10.1
Top2a transcript, 1 DAY DMP-777 vs CONTROL [4]: 7.3
Trip13 transcript, 1 DAY DMP-777 vs CONTROL [4]: 10.3
Uhrf1 transcript, 1 DAY DMP-777 vs CONTROL [4]: 35.3
WDNM1 transcript, 1 DAY DMP-777 vs CONTROL [4]: 5.2
Wfdc2 transcript, 1 DAY DMP-777 vs CONTROL [4]: 8.9
Mcm5 * transcript, 1 DAY DMP-777 vs CONTROL [5]: 18.1
Mcm10 * transcript, 1 DAY DMP-777 vs CONTROL [5]: 12.2
Prc1 transcript, 1 DAY DMP-777 vs CONTROL [5]: 7.5
Rad51ap1 * transcript, 1 DAY DMP-777 vs CONTROL [5]: 12.9
Ris2* transcript, 1 DAY DMP-777 vs CONTROL [5]: 21.5
Mcm5 * transcript, 1 DAY DMP-777 vs CONTROL [6]: 13.9
Mcm10 * transcript, 1 DAY DMP-777 vs CONTROL [6]: 6.7
Prc1 transcript, 1 DAY DMP-777 vs CONTROL [6]: 7.0
Rad51ap1 * transcript, 1 DAY DMP-777 vs CONTROL [6]: 8.7
Ris2* transcript, 1 DAY DMP-777 vs CONTROL [6]: 7.3
5ssca1 transcript, 3 DAYS DMP-777 vs CONTROL [7]: 12.3
Atf3 transcript, 3 DAYS DMP-777 vs CONTROL [7]: 10.1
Cdc2a transcript, 3 DAYS DMP-777 vs CONTROL [7]: 7.0
Cdca1 transcript, 3 DAYS DMP-777 vs CONTROL [7]: 8.1
Cdca5 transcript, 3 DAYS DMP-777 vs CONTROL [7]: 36.1
CdcaS transcript, 3 DAYS DMP-777 vs CONTROL [7]: 8.7
Cenph transcript, 3 DAYS DMP-777 vs CONTROL [7]: 10.7
Clspn transcript, 3 DAYS DMP-777 vs CONTROL [7]: 8.5
Crip1 transcript, 3 DAYS DMP-777 vs CONTROL [7]: 42.6
Dcc1 transcript, 3 DAYS DMP-777 vs CONTROL [7]: 10.0
Ereg transcript, 3 DAYS DMP-777 vs CONTROL [7]: 28.9
ExoscB transcript, 3 DAYS DMP-777 vs CONTROL [7]: 6.7
Fignl1 transcript, 3 DAYS DMP-777 vs CONTROL [7]: 6.6
Gadd45b transcript, 3 DAYS DMP-777 vs CONTROL [7]: 5.0
Il1m transcript, 3 DAYS DMP-777 vs CONTROL [7]: 18.5
Lgals3 transcript, 3 DAYS DMP-777 vs CONTROL [7]: 153.3
Lig1 transcript, 3 DAYS DMP-777 vs CONTROL [7]: 9.6
Mcm6 transcript, 3 DAYS DMP-777 vs CONTROL [7]: 36.4
Ncapg transcript, 3 DAYS DMP-777 vs CONTROL [7]: 3.2
Pole transcript, 3 DAYS DMP-777 vs CONTROL [7]: 11.3
Rad51 transcript, 3 DAYS DMP-777 vs CONTROL [7]: 10.5
Rad54b transcript, 3 DAYS DMP-777 vs CONTROL [7]: 6.6
Rfc3 transcript, 3 DAYS DMP-777 vs CONTROL [7]: 6.1
Rfc4 transcript, 3 DAYS DMP-777 vs CONTROL [7]: 8.4
Rrm1 transcript, 3 DAYS DMP-777 vs CONTROL [7]: 8.4
Tk1 transcript, 3 DAYS DMP-777 vs CONTROL [7]: 11.5
Top2a transcript, 3 DAYS DMP-777 vs CONTROL [7]: 6.4
Trip13 transcript, 3 DAYS DMP-777 vs CONTROL [7]: 8.6
Uhrf1 transcript, 3 DAYS DMP-777 vs CONTROL [7]: 8.8
WDNM1 transcript, 3 DAYS DMP-777 vs CONTROL [7]: 345.9
Wfdc2 transcript, 3 DAYS DMP-777 vs CONTROL [7]: 67.5
Mcm5 * transcript, 3 DAYS DMP-777 vs CONTROL [8]: 36.2
Mcm10 * transcript, 3 DAYS DMP-777 vs CONTROL [8]: 38.3
Prc1 transcript, 3 DAYS DMP-777 vs CONTROL [8]: 6.9
Rad51ap1 * transcript, 3 DAYS DMP-777 vs CONTROL [8]: 6.1
Ris2* transcript, 3 DAYS DMP-777 vs CONTROL [8]: 41.3
Mcm5 * transcript, 3 DAYS DMP-777 vs CONTROL [9]: 18.2
Mcm10 * transcript, 3 DAYS DMP-777 vs CONTROL [9]: 10.1
Prc1 transcript, 3 DAYS DMP-777 vs CONTROL [9]: 7.4
Rad51ap1 * transcript, 3 DAYS DMP-777 vs CONTROL [9]: 7.4
Ris2* transcript, 3 DAYS DMP-777 vs CONTROL [9]: 10.3
increase in the expression of the HE4 gene (gene microarray, DMP-777-treated gastrin knockout mice vs untreated): greater than 16 fold

Reference: patent US7811778B2, “Methods of screening for gastrointestinal cancer” (Vanderbilt University, priority 2006, dated 2010)
